PubChem BioAssay AID1963426 (Molecular Pharmacology Branch, DTP, NCI, 2024)

System: 186277-243-T-J2-PDC complex spheroid growth, % test/control
Assay: Anticancer human tumor 186277-243-T-J2-PDC patient-derived colon adenocarcinoma cell line growth inhibition [Asc]
Conditions: for IC50: curve of first compound; for viability, T/C: stronger effect = lower value
Outline: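 Stromal components (HUVEC and hMSC) are co-assembled with the cancer cells into multicellular spheroids. Drugs are then added singly or paired, at concentrations falling by half-log increments from a clinically achievable maximum, capped at 10 microM without known Cmax.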

[1] = second compound 0.1 µM, first compound 0.00316 µM
[2] = second compound 0.1 µM, first compound 0.01 µM
[3] = second compound 0.1 µM, first compound 0.0316 µM
[4] = second compound 0.1 µM, first compound 0.1 µM
[5] = second compound 0.1 µM, first compound 0.316 µM
[6] = second compound 0.1 µM, first compound 1 µM
[7] = second compound 0.316 µM, first compound 0.00316 µM
[8] = second compound 0.316 µM, first compound 0.01 µM
[9] = second compound 0.316 µM, first compound 0.0316 µM
[10] = second compound 0.316 µM, first compound 0.1 µM
[11] = second compound 0.316 µM, first compound 0.316 µM
[12] = second compound 0.316 µM, first compound 1 µM
[13] = second compound 1 µM, first compound 0.00316 µM
[14] = second compound 1 µM, first compound 0.01 µM
[15] = second compound 1 µM, first compound 0.0316 µM
[16] = second compound 1 µM, first compound 0.1 µM
[17] = second compound 1 µM, first compound 0.316 µM
[18] = second compound 1 µM, first compound 1 µM
[19] = second compound 3.16 µM, first compound 0.00316 µM
[20] = second compound 3.16 µM, first compound 0.01 µM
[21] = second compound 3.16 µM, first compound 0.0316 µM
[22] = second compound 3.16 µM, first compound 0.1 µM
[23] = second compound 3.16 µM, first compound 0.316 µM
[24] = second compound 3.16 µM, first compound 1 µM
[25] = second compound 10 µM, first compound 0.00316 µM
[26] = second compound 10 µM, first compound 0.01 µM
[27] = second compound 10 µM, first compound 0.0316 µM
[28] = second compound 10 µM, first compound 0.1 µM
[29] = second compound 10 µM, first compound 0.316 µM
[30] = second compound 10 µM, first compound 1 µM
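Also: spheroids exposed to agents for 7 days.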
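For viability, T/C in this document: 100% = DMSO vehicle control wells.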

| SMILES | IC50 (second compound 0.1 µM) | IC50 (second compound 0.316 µM) | IC50 (second compound 1 µM) | IC50 (second compound 3.16 µM) | IC50 (second compound 10 µM) | viability, T/C [1] | viability, T/C [2] | viability, T/C [3] | viability, T/C [4] | viability, T/C [5] | viability, T/C [6] | viability, T/C [7] | viability, T/C [8] | viability, T/C [9] | viability, T/C [10] | viability, T/C [11] | viability, T/C [12] | viability, T/C [13] | viability, T/C [14] | viability, T/C [15] | also measured |
| --- | --- | --- | --- | --- | --- | --- | --- | --- | --- | --- | --- | --- | --- | --- | --- | --- | --- | --- | --- | --- | --- |
| CCN1CCN(Cc2ccc(Nc3ncc(F)c(-c4cc(F)c5nc(C)n(C(C)C)c5c4)n3)nc2)CC1 + Cc1c(S(C)(=O)=O)c(-c2cc(F)cc(N3CCN(c4ccc(NS(=O)(=O)c5ccc(NC(CCN6CCC(C(=O)OCCCP(=O)(O)O)CC6)CSc6ccccc6)c(S(=O)(=O)C(F)(F)F)c5)cc4)CC3)c2)c(-c2ccc(Cl)cc2)n1C(C)C | > 1 µM | > 1 µM | > 1 µM | 0.788 µM | 0.738 µM | 107% | 99.1% | 103% | 125% | 123% | 75.3% | 95.2% | 94.1% | 103% | 115% | 114% | 67.7% | 86.6% | 99.6% | 102% | viability, T/C [16]: 120%; viability, T/C [17]: 101%; viability, T/C [18]: 56.7%; viability, T/C [19]: 96.4%; viability, T/C [20]: 89.8%; viability, T/C [21]: 101%; viability, T/C [22]: 113%; viability, T/C [23]: 89.8%; viability, T/C [24]: 39.6%; viability, T/C [25]: 91.3%; viability, T/C [26]: 84.3%; viability, T/C [27]: 100%; viability, T/C [28]: 110%; viability, T/C [29]: 93.5%; viability, T/C [30]: 34.2% |
| COc1c(OCCCN2CCOCC2)ccc2c3n(c(=NC(=O)c4cnc(N)nc4)nc12)CCN3 + Cc1c(S(C)(=O)=O)c(-c2cc(F)cc(N3CCN(c4ccc(NS(=O)(=O)c5ccc(NC(CCN6CCC(C(=O)OCCCP(=O)(O)O)CC6)CSc6ccccc6)c(S(=O)(=O)C(F)(F)F)c5)cc4)CC3)c2)c(-c2ccc(Cl)cc2)n1C(C)C | 0.0434 µM | 0.0402 µM | 0.0338 µM | 0.0272 µM | 0.0318 µM | 107% | 101% | 53.2% | 31.5% | 12.4% | 8.11% | 98% | 98.1% | 53.2% | 24.9% | 7.34% | 4.21% | 95.9% | 84.1% | 50.3% | viability, T/C [16]: 21.9%; viability, T/C [17]: 6.19%; viability, T/C [18]: 2%; viability, T/C [19]: 91.7%; viability, T/C [20]: 99.2%; viability, T/C [21]: 42.8%; viability, T/C [22]: 15.7%; viability, T/C [23]: 2.68%; viability, T/C [24]: 1.29%; viability, T/C [25]: 82.4%; viability, T/C [26]: 83.9%; viability, T/C [27]: 48%; viability, T/C [28]: 15.5%; viability, T/C [29]: 4.11%; viability, T/C [30]: 1.39% |
